Measurements published in patent US9321773B2, “Compounds” (Respivert Ltd, priority 2009, dated 2016).
Where two headings read alike, the source gives them in different places.

Tests used:
[1] = target: recombinant PI3 kinase α (Homo sapiens (Human), UniProt P42336); test: Enzyme Inhibition Assay (HTRF PI3K enzyme assay, TR-FRET); format: biochemical
How it was run: (§1)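 Recombinant PI3Kα, δ or γ incubated with PIP2 substrate and compound for 2 hr at RT. Stop solution with biotin-PIP3 and GST-GRP1 PH domain/Eu-anti-GST/SA-APC detection mix added, then 15-18 hr at RT. PIP3 formed reduces the TR-FRET signal.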

[2] = target: recombinant PI3 kinase γ (Homo sapiens (Human), UniProt P48736); test: as above; format: biochemical
recombinant PI3 kinase γ, sequence (P48736 whole entry): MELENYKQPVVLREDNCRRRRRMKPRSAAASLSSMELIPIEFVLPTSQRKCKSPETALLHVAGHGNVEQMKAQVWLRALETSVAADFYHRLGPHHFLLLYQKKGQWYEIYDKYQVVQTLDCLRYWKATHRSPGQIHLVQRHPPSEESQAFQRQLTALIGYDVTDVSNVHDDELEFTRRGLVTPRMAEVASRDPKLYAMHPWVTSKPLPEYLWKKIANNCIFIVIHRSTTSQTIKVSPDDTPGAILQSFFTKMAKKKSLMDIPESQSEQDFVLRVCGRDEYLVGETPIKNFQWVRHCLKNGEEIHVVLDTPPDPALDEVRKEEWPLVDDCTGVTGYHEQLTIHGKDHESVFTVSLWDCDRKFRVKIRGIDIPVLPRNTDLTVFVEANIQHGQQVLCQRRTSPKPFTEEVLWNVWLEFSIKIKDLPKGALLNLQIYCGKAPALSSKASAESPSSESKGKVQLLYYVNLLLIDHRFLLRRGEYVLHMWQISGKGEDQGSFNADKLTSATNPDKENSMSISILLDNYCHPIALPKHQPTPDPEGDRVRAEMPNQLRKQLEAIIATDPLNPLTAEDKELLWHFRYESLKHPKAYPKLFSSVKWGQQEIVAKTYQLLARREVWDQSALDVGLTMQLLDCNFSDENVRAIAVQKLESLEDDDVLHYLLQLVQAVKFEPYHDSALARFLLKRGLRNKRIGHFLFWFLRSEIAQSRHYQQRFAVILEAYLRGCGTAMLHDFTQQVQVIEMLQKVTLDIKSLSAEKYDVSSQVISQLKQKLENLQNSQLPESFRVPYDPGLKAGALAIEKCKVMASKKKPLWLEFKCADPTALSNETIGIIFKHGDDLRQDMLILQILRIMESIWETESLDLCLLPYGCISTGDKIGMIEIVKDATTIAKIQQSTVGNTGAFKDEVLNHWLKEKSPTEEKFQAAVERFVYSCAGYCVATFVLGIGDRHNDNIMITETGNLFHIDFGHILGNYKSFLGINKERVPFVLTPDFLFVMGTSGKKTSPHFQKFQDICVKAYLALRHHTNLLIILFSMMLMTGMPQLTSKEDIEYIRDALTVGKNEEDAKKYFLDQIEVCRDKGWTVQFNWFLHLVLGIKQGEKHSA
How it was run: as §1

[3] = target: recombinant PI3 kinase δ (Homo sapiens (Human), UniProt O00329); test: as above; format: biochemical
recombinant PI3 kinase δ, sequence (O00329 whole entry): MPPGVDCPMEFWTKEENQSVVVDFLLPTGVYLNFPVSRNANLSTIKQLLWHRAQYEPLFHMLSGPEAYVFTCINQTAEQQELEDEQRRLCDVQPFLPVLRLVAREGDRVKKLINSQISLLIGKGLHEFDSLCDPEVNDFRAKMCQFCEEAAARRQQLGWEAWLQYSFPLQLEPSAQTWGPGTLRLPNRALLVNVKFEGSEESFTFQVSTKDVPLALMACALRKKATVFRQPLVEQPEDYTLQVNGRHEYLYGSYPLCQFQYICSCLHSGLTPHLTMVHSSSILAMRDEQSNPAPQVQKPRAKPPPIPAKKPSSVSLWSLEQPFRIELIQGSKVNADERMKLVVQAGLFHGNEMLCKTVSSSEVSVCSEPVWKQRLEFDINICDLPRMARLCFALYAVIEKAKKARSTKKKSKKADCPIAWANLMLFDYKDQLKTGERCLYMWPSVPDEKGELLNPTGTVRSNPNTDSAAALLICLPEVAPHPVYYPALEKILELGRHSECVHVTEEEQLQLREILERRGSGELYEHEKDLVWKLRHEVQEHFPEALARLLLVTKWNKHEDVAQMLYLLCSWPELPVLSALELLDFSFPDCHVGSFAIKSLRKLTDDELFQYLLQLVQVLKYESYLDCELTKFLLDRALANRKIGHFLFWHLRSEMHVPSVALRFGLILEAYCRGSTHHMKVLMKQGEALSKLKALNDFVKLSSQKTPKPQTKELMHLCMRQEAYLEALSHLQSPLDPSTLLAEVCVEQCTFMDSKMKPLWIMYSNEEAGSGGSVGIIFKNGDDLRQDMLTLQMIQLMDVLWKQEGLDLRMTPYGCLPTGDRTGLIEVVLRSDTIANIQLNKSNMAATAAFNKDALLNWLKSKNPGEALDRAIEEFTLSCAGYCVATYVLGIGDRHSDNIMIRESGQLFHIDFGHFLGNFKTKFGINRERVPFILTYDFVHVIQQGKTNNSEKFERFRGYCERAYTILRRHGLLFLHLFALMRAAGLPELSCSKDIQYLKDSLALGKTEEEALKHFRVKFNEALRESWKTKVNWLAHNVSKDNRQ
recombinant PI3 kinase δ, sequence (P27986 whole entry partner): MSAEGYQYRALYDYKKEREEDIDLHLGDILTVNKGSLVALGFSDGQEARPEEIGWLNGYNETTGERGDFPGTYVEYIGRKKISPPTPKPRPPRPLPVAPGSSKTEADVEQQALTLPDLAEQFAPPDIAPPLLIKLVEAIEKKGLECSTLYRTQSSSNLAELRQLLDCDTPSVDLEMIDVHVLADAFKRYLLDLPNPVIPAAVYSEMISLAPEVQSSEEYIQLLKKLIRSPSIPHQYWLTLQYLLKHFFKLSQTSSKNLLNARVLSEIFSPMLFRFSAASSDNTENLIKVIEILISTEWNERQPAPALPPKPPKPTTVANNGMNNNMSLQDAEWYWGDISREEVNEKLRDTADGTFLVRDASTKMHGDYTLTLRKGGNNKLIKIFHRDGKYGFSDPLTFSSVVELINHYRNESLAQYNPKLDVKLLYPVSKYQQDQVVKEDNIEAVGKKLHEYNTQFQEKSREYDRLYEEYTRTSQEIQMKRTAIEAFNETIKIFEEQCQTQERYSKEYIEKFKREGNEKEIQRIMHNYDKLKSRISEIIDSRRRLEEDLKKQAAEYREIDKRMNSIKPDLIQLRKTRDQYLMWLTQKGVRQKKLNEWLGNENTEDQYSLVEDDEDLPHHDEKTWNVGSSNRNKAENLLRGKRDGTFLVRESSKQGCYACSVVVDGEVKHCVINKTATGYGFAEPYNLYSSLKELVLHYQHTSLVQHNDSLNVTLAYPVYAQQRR
How it was run: as §1

[4] = system: H2O2 induced pAkt in D-U937 cells; test: PI3Kδ Cell Based Assay (H2O2 induced pAkt); details: Homo sapiens
How it was run: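 U937 cells differentiated to macrophage-type cells with PMA (100 ng/mL, 48 to 72 hr), then stimulated with H2O2. pAkt and total Akt detected by antibody-based immunoassay. Ratio of pAkt to total Akt signal used; IC50 from concentration-response curves of serially diluted compounds.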

[5] = system: PMA-differentiated U937 cells; test: MTT Assay (cell viability); format: cell-based, Human; details: percentage loss of cell viability; for Cell Viability MTT Assay in D-U937 cells at 4 hr: 4 hr in 5% FCS; for Cell Viability MTT Assay in D-U937 cells at 24 hr: 24 hr in 10% FCS
How it was run: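 Differentiated U937 cells treated with compound for 4 hr (5% FCS) or 24 hr (10% FCS), then given MTT for 1 hr; formazan dissolved in DMSO and absorbance read at 550 nm. Viability loss expressed as % versus 0.5% DMSO vehicle.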

[6] = Stereochemical analysis by chiral stationary phase HPLC (atropisomerism); format: physicochemical; details: for atropisomerism by chiral stationary phase HPLC: chiral stationary phase HPLC (16 different conditions for the examples)
Procedure: Each of these mobile phase are compatible with the column packings referred to above, providing sixteen different solvent and stationary phase permutations. Modifiers such as triethylamine (0.1%), formic acid (0.1%) may be added to improve the resolution
Semi-preparative Chiral Stationary Phase LC-UV was performed on a Gilson preparative modular system using a Daicel Chiralpak AD semi-prep column ([…], 20×250 mm) and a flow rate of 18 mL/min eluting with an isocratic method over 20 min using […] heptane:IPA and 0.1% triethylamine employing an injection volume of 1.0 mL.

[7] = activity range, read-out: PI3 Kinase Inhibition IC50 values at stated Isozyme α
[8] = activity range, read-out: PI3 Kinase Inhibition IC50 values at stated Isozyme γ
[9] = activity range, read-out: PI3 Kinase Inhibition IC50 values at stated Isozyme δ
[10] = dU937, read-out: Cellular Activity IC50 values (H2O2 induced pAkt D-U937 Cells)
[11] = dU937, activity range, D-U937 cells, read-out: Cellular Activity IC50 values (H2O2 induced pAkt D-U937 Cells)
[12] = read-out: PI3 Kinase Inhibition IC50 values at stated Isozyme (nM) α
[13] = read-out: PI3 Kinase Inhibition IC50 values at stated Isozyme (nM) γ
[14] = read-out: PI3 Kinase Inhibition IC50 values at stated Isozyme (nM) δ
[15] = dU937, read-out: Cellular Activity IC50 values (H2O2 induced pAkt (nM) D-U937 Cells)

recombinant PI3 kinase α, sequence (P42336 whole entry, the tested form may be a part): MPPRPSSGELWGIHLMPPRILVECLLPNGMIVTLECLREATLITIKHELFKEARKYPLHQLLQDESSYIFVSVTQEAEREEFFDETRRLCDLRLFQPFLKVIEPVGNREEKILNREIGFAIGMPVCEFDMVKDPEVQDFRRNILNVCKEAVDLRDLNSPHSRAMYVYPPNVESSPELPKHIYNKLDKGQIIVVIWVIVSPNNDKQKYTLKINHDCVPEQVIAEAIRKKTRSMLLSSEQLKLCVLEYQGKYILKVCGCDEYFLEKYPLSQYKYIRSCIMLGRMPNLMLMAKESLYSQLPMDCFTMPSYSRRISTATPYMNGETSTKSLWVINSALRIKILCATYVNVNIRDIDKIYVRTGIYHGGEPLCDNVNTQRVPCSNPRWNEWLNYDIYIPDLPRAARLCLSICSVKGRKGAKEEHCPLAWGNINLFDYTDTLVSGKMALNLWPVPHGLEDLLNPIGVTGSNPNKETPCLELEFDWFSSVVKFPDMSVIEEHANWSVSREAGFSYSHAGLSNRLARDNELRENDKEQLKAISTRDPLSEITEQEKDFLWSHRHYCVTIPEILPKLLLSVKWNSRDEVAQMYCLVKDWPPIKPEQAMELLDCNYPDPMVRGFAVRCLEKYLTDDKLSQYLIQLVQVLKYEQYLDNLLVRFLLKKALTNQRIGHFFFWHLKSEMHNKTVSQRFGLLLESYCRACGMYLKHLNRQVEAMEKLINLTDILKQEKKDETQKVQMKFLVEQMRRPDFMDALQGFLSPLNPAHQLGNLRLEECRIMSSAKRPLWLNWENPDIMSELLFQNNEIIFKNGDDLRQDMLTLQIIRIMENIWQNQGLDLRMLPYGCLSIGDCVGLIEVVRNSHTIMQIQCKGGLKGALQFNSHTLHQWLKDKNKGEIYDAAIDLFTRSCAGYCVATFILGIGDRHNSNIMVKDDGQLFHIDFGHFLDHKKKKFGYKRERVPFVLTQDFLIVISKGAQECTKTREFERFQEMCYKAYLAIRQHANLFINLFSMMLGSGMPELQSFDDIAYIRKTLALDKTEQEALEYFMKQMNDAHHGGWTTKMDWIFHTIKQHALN
recombinant PI3 kinase α, sequence (P27986 whole entry partner, the tested form may be a part): as the sequence (P27986 whole entry partner) above

SMILES | IC50 [1, 7] | IC50 [2, 8] | IC50 [3, 9] | IC50 [4, 10] | Cell Viability MTT Assay in D-U937 cells at 4 hr [5] | Cell Viability MTT Assay in D-U937 cells at 24 hr [5] | atropisomerism by chiral stationary phase HPLC [6] | IC50 [4, 11] | IC50 [1, 12] | IC50 [2, 13] | IC50 [3, 14] | IC50 [4, 15] | interconversion of separated atropisomers ([6]; ambient and elevated temperatures, over several days)
C#Cc1cccc2nc(Cn3nc(-c4ccc(O)cc4)c4c(N)ncnc43)n(Cc3ccccc3Cl)c(=O)c12 [Example 9, 2-((4-Amino-3-(4-hydroxyphenyl)-1H-pyrazolo[3,4-d]pyrimidin-1-yl)methyl)-3-(2-chlorobenzyl)-5-ethynyl quinazolin-4(3H)-one] | 50 to 1000 nM | 50 to 1000 nM | < 50 nM | < 10 nM | − (− <30%) | − (− <30%) | no evidence for atropisomerism was observed | – | – | – | – | – | –
C#Cc1cccc2nc(Cn3nc(-c4cccc(O)c4)c4c(N)ncnc43)n(Cc3cccc(Cl)c3)c(=O)c12 [Example 10, 2-((4-Amino-3-(3-hydroxyphenyl)-1H-pyrazolo[3,4-d]pyrimidin-1-yl)methyl)-3-(3-chlorobenzyl)-5-ethynyl quinazolin-4(3H)-one] | 50 to 1000 nM | 50 to 1000 nM | < 50 nM | < 10 nM | − (− <30%) | − (− <30%) | no evidence for atropisomerism was observed | – | – | – | – | – | –
COCCN1CCN(C(=O)CCCC#Cc2cccc3nc(Cn4nc(-c5ccc(O)cc5)c5c(N)ncnc54)n(Cc4ccccc4Cl)c(=O)c23)CC1 [Example 77, 2-((4-Amino-3-(4-hydroxyphenyl)-1H-pyrazolo[3,4-d]pyrimidin-1-yl)methyl)-3-(2-chlorobenzyl)-5-(6-(4-(2-methoxyethyl)piperazin-1-yl)-6-oxohex-1-ynyl) quinazolin-4(3H)-one] | 50 to 1000 nM | < 50 nM | < 50 nM | – | − (− <30%) | − (− <30%) | – | < 10 nM | – | – | – | – | –
CN(C)CCNC(=O)CCCC#Cc1cccc2nc(Cn3nc(-c4ccc(O)cc4)c4c(N)ncnc43)n(Cc3ccccc3Cl)c(=O)c12 [Example 78, 6-(2-((4-Amino-3-(4-hydroxyphenyl)-1H-pyrazolo[3,4-d]pyrimidin-1-yl)methyl)-3-(2-chlorobenzyl)-4-oxo-3,4-dihydroquinazolin-5-yl)-N-(2-(dimethylamino)ethyl) hex-5-ynamide] | 50 to 1000 nM | < 50 nM | < 50 nM | – | − (− <30%) | − (− <30%) | – | < 10 nM | – | – | – | – | –
Nc1ncnc2c1c(-c1ccc(O)cc1)nn2Cc1nc2cccc(C#CCCCC(=O)Nc3ccncc3)c2c(=O)n1Cc1ccccc1Cl [Example 79, 6-(2-((4-Amino-3-(4-hydroxyphenyl)-1H-pyrazolo[3,4-d]pyrimidin-1-yl)methyl)-3-(2-chlorobenzyl)-4-oxo-3,4-dihydroquinazolin-5-yl)-N-(pyridin-4-yl)hex-5-ynamide] | 50 to 1000 nM | 50 to 1000 nM | < 50 nM | – | − (− <30%) | − (− <30%) | – | < 10 nM | – | – | – | – | –
CN(C)C1CCN(C(=O)CCCC#Cc2cccc3nc(Cn4nc(-c5ccc(O)cc5)c5c(N)ncnc54)n(Cc4ccccc4Cl)c(=O)c23)CC1 [Example 81, 2-((4-Amino-3-(4-hydroxyphenyl)-1H-pyrazolo[3,4-d]pyrimidin-1-yl)methyl)-3-(2-chlorobenzyl)-5-(6-(4-(dimethylamino)piperidin-1-yl)-6-oxohex-1-ynyl) quinazolin-4(3H)-one] | 50 to 1000 nM | 50 to 1000 nM | < 50 nM | – | − (− <30%) | − (− <30%) | – | < 10 nM | – | – | – | – | –
COCCN(CCOC)C(=O)CCCC#Cc1cccc2nc(Cn3nc(-c4ccc(O)cc4)c4c(N)ncnc43)n(Cc3ccccc3Cl)c(=O)c12 [Example 82, 6-(2-((4-Amino-3-(4-hydroxyphenyl)-1H-pyrazolo[3,4-d]pyrimidin-1-yl)methyl)-3-(2-chlorobenzyl)-4-oxo-3,4-dihydroquinazolin-5-yl)-N,N-bis(2-methoxyethyl)hex-5-ynamide] | 50 to 1000 nM | < 50 nM | < 50 nM | – | − (− <30%) | − (− <30%) | – | < 10 nM | – | – | – | – | –
CC(C)NC(=O)CCCC#Cc1cccc2nc(Cn3nc(-c4ccc(O)cc4)c4c(N)ncnc43)n(Cc3ccccc3Cl)c(=O)c12 [Example 86, 6-(2-((4-Amino-3-(4-hydroxyphenyl)-1H-pyrazolo[3,4-d]pyrimidin-1-yl)methyl)-3-(2-chlorobenzyl)-4-oxo-3,4-dihydroquinazolin-5-yl)-N-isopropylhex-5-ynamide] | < 50 nM | < 50 nM | < 50 nM | – | − (− <30%) | − (− <30%) | – | < 10 nM | 27 nM | 22 nM | 36 nM | 0.41 nM | –
CN(C)C(=O)CCCC#Cc1cccc2nc(Cn3nc(-c4ccc(O)cc4)c4c(N)ncnc43)n(Cc3ccccc3Cl)c(=O)c12 [Example 88, 6-(2-((4-Amino-3-(4-hydroxyphenyl)-1H-pyrazolo[3,4-d]pyrimidin-1-yl)methyl)-3-(2-chlorobenzyl)-4-oxo-3,4-dihydroquinazolin-5-yl)-N,N-dimethylhex-5-ynamide] | 50 to 1000 nM | < 50 nM | < 50 nM | – | − (− <30%) | − (− <30%) | – | < 10 nM | – | – | – | – | –
Nc1ncnc2c1c(-c1ccc(O)cc1)nn2Cc1nc2cccc(C#CCCCC(=O)N3CCCC3)c2c(=O)n1Cc1ccccc1Cl [Example 89, 2-((4-Amino-3-(4-hydroxyphenyl)-1H-pyrazolo[3,4-d]pyrimidin-1-yl)methyl)-3-(2-chlorobenzyl)-5-(6-oxo-6-(pyrrolidin-1-yl)hex-1-yn-1-yl)quinazolin-4(3H)-one] | > 1000 nM | < 50 nM | < 50 nM | – | − (− <30%) | − (− <30%) | – | < 10 nM | 1490 nM | 47 nM | 3 nM | 0.2 nM | –
CN(C)C1CCN(C(=O)CCCC#Cc2cccc3nc(Cn4nc(-c5ccc(O)cc5)c5c(N)ncnc54)n(Cc4ccccc4Cl)c(=O)c23)C1 (stereo not drawn) [Example 91, 2-((4-Amino-3-(4-hydroxyphenyl)-1H-pyrazolo[3,4-d]pyrimidin-1-yl)methyl)-3-(2-chlorobenzyl)-5-(6-(3-(dimethylamino)pyrrolidin-1-yl)-6-oxohex-1-ynyl) quinazolin-4(3H)-one] | 50 to 1000 nM | < 50 nM | < 50 nM | – | − (− <30%) | − (− <30%) | – | < 10 nM | – | – | – | – | –
CN1CCCN(C(=O)CCCC#Cc2cccc3nc(Cn4nc(-c5ccc(O)cc5)c5c(N)ncnc54)n(Cc4ccccc4Cl)c(=O)c23)CC1 [Example 93, 2-((4-Amino-3-(4-hydroxyphenyl)-1H-pyrazolo[3,4-d]pyrimidin-1-yl)methyl)-3-(2-chlorobenzyl)-5-(6-(4-methyl-1,4-diazepan-1-yl)-6-oxohex-1-ynyl)quinazolin-4(3H)-one] | 50 to 1000 nM | < 50 nM | < 50 nM | – | − (− <30%) | − (− <30%) | – | < 10 nM | – | – | – | – | –
COc1cc(-c2nn(Cc3nc4cccc(C#CCCCC(=O)N5CCOCC5)c4c(=O)n3Cc3ccccc3Cl)c3ncnc(N)c23)ccc1O [Example 95, 2-((4-Amino-3-(4-hydroxy-3-methoxyphenyl)-1H-pyrazolo[3,4-d]pyrimidin-1-yl)methyl)-3-(2-chlorobenzyl)-5-(6-morpholino-6-oxohex-1-ynyl)quinazolin-4(3H)-one] | 50 to 1000 nM | < 50 nM | < 50 nM | – | − (− <30%) | − (− <30%) | – | < 10 nM | – | – | – | – | –
Cc1ccccc1-n1c(Cn2nc(-c3cccc(O)c3)c3c(N)ncnc32)nc2cccc(C)c2c1=O [PIK294, reference compound] | – | – | – | – | – | – | 1:1 mixture of enantiomeric atropisomers | – | – | – | – | – | no detectable signs of interconversion
